{
  "source": "patent US20110104301A1",
  "about": "“METHODS OF REDUCING PAIN AND INFLAMMATION” (Georgetown University, A Congressionally Chartered …, priority 2008, published 2011)",
  "key": {"TRPA1 [1]": {"biological_target": "T1, TRPA1 (Rattus norvegicus, UniProt Q6RI86)", "T1 construct": "expressed in transfected cells; host or cells: HEK 293F", "T1 sequence (Q6RI86 whole entry)": "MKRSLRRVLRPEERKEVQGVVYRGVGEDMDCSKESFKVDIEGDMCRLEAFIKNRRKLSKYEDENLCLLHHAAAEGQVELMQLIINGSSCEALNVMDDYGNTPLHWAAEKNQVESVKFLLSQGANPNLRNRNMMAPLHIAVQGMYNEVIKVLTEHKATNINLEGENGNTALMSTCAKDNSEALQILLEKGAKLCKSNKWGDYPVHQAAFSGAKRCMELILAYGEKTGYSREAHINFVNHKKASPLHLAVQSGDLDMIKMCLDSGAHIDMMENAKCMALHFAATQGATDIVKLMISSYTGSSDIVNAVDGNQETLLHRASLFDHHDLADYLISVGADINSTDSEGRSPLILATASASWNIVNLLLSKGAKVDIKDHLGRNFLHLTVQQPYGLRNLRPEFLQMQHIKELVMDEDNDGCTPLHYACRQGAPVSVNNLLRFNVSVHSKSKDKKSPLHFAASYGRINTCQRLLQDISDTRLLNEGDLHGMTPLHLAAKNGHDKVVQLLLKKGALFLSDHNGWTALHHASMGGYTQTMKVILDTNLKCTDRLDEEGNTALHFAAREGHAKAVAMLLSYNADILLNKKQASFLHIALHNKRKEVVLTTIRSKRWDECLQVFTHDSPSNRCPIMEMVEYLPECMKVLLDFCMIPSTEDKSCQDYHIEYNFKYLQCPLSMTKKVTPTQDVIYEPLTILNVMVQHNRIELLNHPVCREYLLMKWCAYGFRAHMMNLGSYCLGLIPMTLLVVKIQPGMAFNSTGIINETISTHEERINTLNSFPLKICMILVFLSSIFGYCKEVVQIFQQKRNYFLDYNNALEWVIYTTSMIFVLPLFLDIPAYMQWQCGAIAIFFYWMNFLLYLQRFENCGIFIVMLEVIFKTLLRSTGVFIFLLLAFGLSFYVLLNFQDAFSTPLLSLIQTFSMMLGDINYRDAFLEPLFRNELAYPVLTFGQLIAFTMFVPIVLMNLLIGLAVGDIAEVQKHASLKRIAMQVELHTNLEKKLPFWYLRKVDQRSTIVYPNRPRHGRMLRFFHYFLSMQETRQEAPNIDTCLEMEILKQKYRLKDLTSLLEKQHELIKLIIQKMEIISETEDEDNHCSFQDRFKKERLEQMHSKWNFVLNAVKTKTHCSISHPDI", "assay": "Whole-cell patch-clamp of TRPA1-expressing HEK293 cells", "assay_type": "cell-based", "conditions": "for Activation of TRPA1 currents by VGAs: 0.9 mM, voltage-clamped HEK293 cells", "experimental": "Electrophysiology. […] Whole-cell and single-channel patch-clamp recordings were performed by using an EPC8 amplifier (HEKA Electronics). For whole-cell and excised patch recordings the bath solution contained 140 mMNaCl, 4 mMKCl, 1 mMMgCl2, 1.2 mMCaCl2, 10 mMHepes, 10 mM glucose, pH 7.3. For cell-attached experiments, NaCl was replaced with KCl in the bath solution. […] For neuronal recording NaCl was replaced with K-gluconate (plus 1 mMATP, 0.2 mM GTP). Solutions were applied via a gravity-fed system. […] Voltage-dependent properties were measured as described in Matt and Ahern, J. Physiol. […] The baseline currents under control conditions were subtracted. For cell-attached experiments, peak amplitudes were measured from all-points histograms, and open probability was measured as NPo>750 ms. Defolliculated Xenopus laevis oocytes were injected with ≈10 ng of hTRPA1 (gift of Ardem Patapoutian, The Scripps Research Institute, La Jolla, Calif.).\nVolatile General Anesthetics and Chemicals. Saturated stock solutions of volatile GAs were prepared in gas-tight bottles by dissolving excess anesthetic agents in bath solutions overnight. From these stock solutions fresh dilutions were made up every 40-60 min. Concentrations of GAs in the bath solutions were verified by using a modified head-space gas chromatography method. […] Alcohols with <6 carbons were dissolved directly into extracellular solution, and alcohols containing 6 carbons or more were dissolved in DMSO and then diluted into extracellular solutions that were sonicated for 20 min. All other drugs were prepared as stock solutions in DMSO or ethanol and diluted into physiological solution before experiments."}, "TRPA1 [2]": {"biological_target": "T1, TRPA1", "assay": "Single-channel recordings of TRPA1 (outside-out / cell-attached patches)", "assay_type": "cell-based", "conditions": "for TRPA1 single-channel conductance in presence of VGA: 0.23 mM isoflurane, 0.9 mM desflurane, reduced from ≈110 pS; for Single TRPA1 channel activity: cell-free patches", "experimental": "(§1) Electrophysiology. HEK 293F cells were transfected with rat TRPV1, TRPA1, and TRPM8 (gift of David Julius, University of California, San Francisco). Dorsal root ganglia were cultured from adult mice (C57B16/J wild type and TRPV1-null, and mixed B6/129 background TRPA1-null) in Neurobasal +2% B-27 medium (Invitrogen), 0.1% L-glutamine and 1% penicillin/streptomycin. Whole-cell and single-channel patch-clamp recordings were performed by using an EPC8 amplifier (HEKA Electronics). For whole-cell and excised patch recordings the bath solution contained 140 mMNaCl, 4 mMKCl, 1 mMMgCl2, 1.2 mMCaCl2, 10 mMHepes, 10 mM glucose, pH 7.3. For cell-attached experiments, NaCl was replaced with KCl in the bath solution. The pipette solution contained 140 mM NaCl or KCl, 10 mM Hepes, 5 mM EGTA, pH 7.3. For neuronal recording NaCl was replaced with K-gluconate (plus 1 mMATP, 0.2 mM GTP). Solutions were applied via a gravity-fed system. Separate outlets were used to apply capsaicin and AITC solutions to avoid contamination. Voltage-dependent properties were measured as described in Matt and Ahern, J. Physiol. 585:469-482 (2007). Current-voltage measurements comprised a 200-ms ramp from −150 mV to +200 mV. The baseline currents under control conditions were subtracted. For cell-attached experiments, peak amplitudes were measured from all-points histograms, and open probability was measured as NPo>750 ms. Defolliculated Xenopus laevis oocytes were injected with ≈10 ng of hTRPA1 (gift of Ardem Patapoutian, The Scripps Research Institute, La Jolla, Calif.). Oocytes were placed in a Perspex chamber and continuously superfused (5 ml min^−1) with Ca^2+-free solution containing 100 mM NaCl, 2.5 mM KCl, 5 mM Hepes, 1 mM MgC12 and titrated to pH 7.3 with ˜5 mM NaOH."}, "hTRPA1": {"biological_target": "T2, hTRPA1 (Homo sapiens, UniProt O75762)", "T2 construct": "expressed in transfected cells; host or cells: Xenopus laevis oocytes (injected)", "T2 sequence (O75762 whole entry)": "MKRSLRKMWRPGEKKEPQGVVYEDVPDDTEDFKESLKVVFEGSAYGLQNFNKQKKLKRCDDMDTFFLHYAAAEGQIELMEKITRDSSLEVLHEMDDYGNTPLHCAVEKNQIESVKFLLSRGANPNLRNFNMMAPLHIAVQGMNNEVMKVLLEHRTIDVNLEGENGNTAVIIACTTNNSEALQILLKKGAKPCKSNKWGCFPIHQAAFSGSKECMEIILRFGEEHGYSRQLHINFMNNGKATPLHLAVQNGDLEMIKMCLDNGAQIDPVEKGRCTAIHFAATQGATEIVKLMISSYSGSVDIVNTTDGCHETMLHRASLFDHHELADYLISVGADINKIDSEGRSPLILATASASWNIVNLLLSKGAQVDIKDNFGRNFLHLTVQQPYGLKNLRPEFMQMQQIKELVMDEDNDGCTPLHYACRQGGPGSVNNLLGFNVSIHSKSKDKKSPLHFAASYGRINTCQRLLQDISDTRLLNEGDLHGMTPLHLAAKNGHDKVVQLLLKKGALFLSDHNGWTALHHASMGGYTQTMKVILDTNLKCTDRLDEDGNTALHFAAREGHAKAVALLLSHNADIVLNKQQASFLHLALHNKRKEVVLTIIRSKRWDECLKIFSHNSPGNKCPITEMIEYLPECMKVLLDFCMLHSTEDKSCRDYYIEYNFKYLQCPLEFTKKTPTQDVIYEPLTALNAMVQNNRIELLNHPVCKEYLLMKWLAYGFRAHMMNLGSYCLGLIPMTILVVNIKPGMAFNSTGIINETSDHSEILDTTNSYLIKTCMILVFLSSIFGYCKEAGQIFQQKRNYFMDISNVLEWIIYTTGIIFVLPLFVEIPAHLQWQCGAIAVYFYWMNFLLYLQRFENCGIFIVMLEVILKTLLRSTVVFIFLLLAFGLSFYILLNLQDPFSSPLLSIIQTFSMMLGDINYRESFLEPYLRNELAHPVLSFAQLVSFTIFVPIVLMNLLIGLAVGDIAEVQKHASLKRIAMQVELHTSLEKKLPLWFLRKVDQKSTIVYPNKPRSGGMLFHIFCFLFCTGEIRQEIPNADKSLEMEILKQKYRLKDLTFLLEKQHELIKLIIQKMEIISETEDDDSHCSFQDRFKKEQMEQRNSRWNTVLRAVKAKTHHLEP", "assay": "AITC-evoked currents in TRPA1-expressing Xenopus oocytes", "assay_type": "cell-based", "conditions": "VGAs 0.5-0.65 mM, AITC 10 μM", "experimental": "as §1"}, "TRPV1": {"biological_target": "TRPV1 (Rattus norvegicus, UniProt O35433)", "sequence (O35433 whole entry, the tested form may be a part)": "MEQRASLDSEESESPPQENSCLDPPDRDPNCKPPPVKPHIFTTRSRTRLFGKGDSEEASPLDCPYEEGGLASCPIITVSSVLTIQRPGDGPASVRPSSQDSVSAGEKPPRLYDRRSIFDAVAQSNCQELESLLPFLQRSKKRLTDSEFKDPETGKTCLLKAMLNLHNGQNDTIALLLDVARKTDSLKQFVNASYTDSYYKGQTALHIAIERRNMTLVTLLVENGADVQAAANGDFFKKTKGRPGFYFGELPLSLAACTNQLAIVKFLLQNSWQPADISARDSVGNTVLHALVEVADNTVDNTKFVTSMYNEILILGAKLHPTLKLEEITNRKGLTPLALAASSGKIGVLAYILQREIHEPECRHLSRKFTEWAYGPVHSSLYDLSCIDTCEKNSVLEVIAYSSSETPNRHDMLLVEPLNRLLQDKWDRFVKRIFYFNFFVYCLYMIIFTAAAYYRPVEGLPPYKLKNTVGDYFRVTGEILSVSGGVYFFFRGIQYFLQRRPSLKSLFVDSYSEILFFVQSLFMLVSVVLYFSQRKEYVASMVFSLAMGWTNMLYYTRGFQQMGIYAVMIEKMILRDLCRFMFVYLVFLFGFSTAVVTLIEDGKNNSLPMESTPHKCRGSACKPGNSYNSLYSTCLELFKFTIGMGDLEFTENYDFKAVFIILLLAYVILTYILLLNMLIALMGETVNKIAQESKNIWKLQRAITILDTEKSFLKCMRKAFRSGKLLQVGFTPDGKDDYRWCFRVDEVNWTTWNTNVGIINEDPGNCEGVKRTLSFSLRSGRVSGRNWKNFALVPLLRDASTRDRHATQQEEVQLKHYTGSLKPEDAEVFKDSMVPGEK", "assay": "Voltage-clamp of TRPV1-expressing Xenopus oocytes (capsaicin, protons, heat)", "assay_type": "cell-based", "conditions": "for Temperature threshold of TRPV1 heat activation: control ~46° C.", "experimental": "Oocyte electrophysiology. […] Oocytes were placed in a Perspex chamber and continuously superfused (5 ml min-1) with Ca2+-free solution containing (in mM): 100 NaCl, 2.5 KCl, 5 HEPES, 1 MgCl2 and titrated to pH 7.3 with ˜5 mM NaOH. For solutions <pH 6.0, HEPES was replaced with either 5 mM MES or 5 mM sodium citrate. Oocytes were routinely voltage-clamped at −60 mV at 22-23° C. For heat activation, bath temperature was raised from ˜22-50° C. over ˜100 s using an in-line solution heater (Warner Instruments). The temperature was continuously monitored with a probe placed within 2 mm of the oocyte. The temperature-activation threshold was defined as a 20% increase in current above baseline.\nVolatile general anesthetics. Saturated stock solutions of volatile general anesthetics (VGAs) were prepared in gas-tight bottles by dissolving excess anesthetic agents in bath solutions and stirring vigorously overnight. From these stock solutions fresh dilutions were made up every 40-60 minutes. Concentrations of volatile anesthetics in the bath solutions were verified using a modified head-space gas chromatography method. The gas chromatograph (Carlo Erba, Milan, Italy) was equipped with a flame ionization detector (FID) and mass spectrometer. The carrier gas was hydrogen (60 kPa column head pressure) and the fused silica capillary column, coated with polysiloxane SE-30, was 25 m×0.25 mm. Injector temperature was 250° C., FID temperature was 300° C. and the oven was maintained at 90° C. Standards were prepared from a mixture of halothane, isoflurane, and sevoflurane dissolved in acetonitrile with enflurane as an internal standard."}, "[3]": {"conditions": "rat at 37° C.; cited from earlier work"}, "mice": {"test_system": "mice", "assay": "AITC (mustard oil)-induced ear swelling, neurogenic inflammation during anesthesia", "assay_type": "in vivo, mouse", "conditions": "1.2 MAC", "experimental": "Behavioral Experiments and Neurogenic Inflammation. Animal experiments were performed according to National Institutes of Health and institutional guidelines. […] Nocifensive behavior (nose wiping in sawdust bedding) was recorded for 2 min with a video camera and the duration was subsequently measured by a blinded observer. […] Electromyographic (EMG) activity was recorded via platinum electrodes from the semitendinosus muscle in mice anesthetized with urethane (1.3 g/kg) as described in Ando and Watanabe, Br J. Anaesth. […] The EMG signal was recorded by using a low-pass cutoff frequency of 200 Hz and integrated offline by using a 100-ms time window. […] Ear thickness was recorded by using an engineer's micrometer (Mitutoyo Corp.) before mustard-oil application and thereafter every 15 min for 60 min of anesthesia and 60 min of recovery."}},
  "note": "Entries after “also recorded” stand apart in the source; their conditions may differ.",
  "data": [
    {"smiles": "FC(F)OC(F)C(F)(F)F", "note": "(centres unmarked) [desflurane]", "values": [
      {"measurement": "Activation of TRPA1 currents by VGAs", "setting": "TRPA1 [1]", "result": "robustly activated"},
      {"measurement": "TRPA1 single-channel conductance in presence of VGA", "setting": "TRPA1 [2]", "result": "≈ 80 pS"},
      {"measurement": "Increase in maximal open probability of TRPA1", "setting": "TRPA1 [2]; cell-attached patches", "result": "> 6", "unit": "fold"},
      {"measurement": "V1/2 of TRPA1 open probability in presence of desflurane", "setting": "TRPA1 [2]; cell-attached patches, shifted from 72.1 mV", "result": 42.5, "unit": "mV"},
      {"measurement": "Single TRPA1 channel activity", "setting": "TRPA1 [2]", "result": "enhanced single-channel gating; also recorded: activate single TRPA1 channels"},
      {"measurement": "Effect on AITC-evoked currents", "setting": "hTRPA1", "result": "markedly enhanced"},
      {"measurement": "Enhancement of proton-evoked currents compared with isoflurane and sevoflurane", "setting": "TRPV1; VGAs 0.6 mM, pH 5.5", "result": "significantly more"},
      {"measurement": "1 MAC equivalent aqueous concentration (published conversion factor)", "setting": "[3]", "result": 0.51, "unit": "mM"}
    ]},
    {"smiles": "FC(F)OC(Cl)C(F)(F)F", "note": "(centres unmarked) [isoflurane]", "values": [
      {"measurement": "Activation of TRPA1 after AITC treatment", "setting": "TRPA1 [1]", "result": "failed to activate"},
      {"measurement": "Activation of TRPA1 currents by VGAs", "setting": "TRPA1 [1]", "result": "produced inward currents; also recorded: robustly activated"},
      {"measurement": "TRPA1 response at high concentration", "setting": "TRPA1 [1]; 2.7 mM, additional blocking mechanism", "result": "reduced"},
      {"measurement": "EC50 of TRPA1 activation expressed in MAC", "setting": "TRPA1 [1]; HEK293 cells", "result": 0.57, "unit": "MAC"},
      {"measurement": "Hill coefficient of TRPA1 activation", "setting": "TRPA1 [1]; HEK293 cells", "result": "1.6±0.2"},
      {"measurement": "EC50", "setting": "TRPA1 [1]; HEK293 cells, read-out: EC50 of TRPA1 activation", "result": "180 ± 20", "unit": "µM"},
      {"measurement": "Effect on TRPA1 when applied together with saturating octanol", "setting": "TRPA1 [1]; isoflurane 0.9 mM + octanol 1.8 mM", "result": "negligible effects"},
      {"measurement": "Activation of TRPA1 at holding potential −50 mV", "setting": "TRPA1 [1]; isoflurane 0.9 mM, octanol 1 mM", "result": "selectively activated"},
      {"measurement": "Concentration at peak of bimodal dose-response relationship", "setting": "TRPA1 [1]; reduction at higher concentrations", "result": "≈ 1 mM"},
      {"measurement": "TRPA1 single-channel conductance in presence of VGA", "setting": "TRPA1 [2]", "result": "≈ 60 pS"},
      {"measurement": "Single TRPA1 channel activity", "setting": "TRPA1 [2]", "result": "enhanced single-channel gating; also recorded: activate single TRPA1 channels"},
      {"measurement": "Effect on AITC-evoked currents", "setting": "hTRPA1", "result": "markedly enhanced"},
      {"measurement": "Temperature threshold of TRPV1 heat activation", "setting": "TRPV1; 0.5 mM isoflurane", "result": 43, "unit": "°C"},
      {"measurement": "Temperature threshold of TRPV1 heat activation", "setting": "TRPV1; 0.9 mM isoflurane", "result": 40, "unit": "°C"},
      {"measurement": "Enhancement of maximal proton-evoked current", "setting": "TRPV1; isoflurane 0.9 mM", "result": "approximately 3 fold"},
      {"measurement": "Temperature threshold of TRPV1 heat activation after PDBu application", "setting": "TRPV1; isoflurane 0.9 mM after PDBu, control 45.9±0.2", "result": "32.8±0.8", "unit": "°C"},
      {"measurement": "Enhancement of currents evoked by pH 5.5 solution", "setting": "TRPV1; isoflurane 0.9 mM, n=4", "result": "approximately 10 fold"},
      {"measurement": "Maximal proton response as % of 10 μM capsaicin", "setting": "TRPV1; isoflurane 0.9 mM, control 14.3%", "result": 32.2, "unit": "%"},
      {"measurement": "1 MAC equivalent aqueous concentration (published conversion factor)", "setting": "[3]", "result": 0.31, "unit": "mM"},
      {"measurement": "AITC-induced ear swelling during anesthesia, compared with sevoflurane", "setting": "mice; AITC 0.6%, 15-120 min, n=7, P<0.01", "result": "significantly greater swelling"},
      {"measurement": "Swelling in the unpainted ear", "setting": "mice; at 90 and 120 min", "result": "small increase in swelling"}
    ]}
  ]
}
